According to paper PMC1345695 (Nucleic Acids Research, 2006):
pKd: −log10 of the molar value.

Target: wt tetrameric Lac repressor (tet. LacR) (Escherichia coli, UniProt P03023)
Test: band shift of operator DNA, IPTG titration, non-linear regression
Format: binding

Chain of wt tetrameric Lac repressor (tet. LacR) (P03023 whole entry): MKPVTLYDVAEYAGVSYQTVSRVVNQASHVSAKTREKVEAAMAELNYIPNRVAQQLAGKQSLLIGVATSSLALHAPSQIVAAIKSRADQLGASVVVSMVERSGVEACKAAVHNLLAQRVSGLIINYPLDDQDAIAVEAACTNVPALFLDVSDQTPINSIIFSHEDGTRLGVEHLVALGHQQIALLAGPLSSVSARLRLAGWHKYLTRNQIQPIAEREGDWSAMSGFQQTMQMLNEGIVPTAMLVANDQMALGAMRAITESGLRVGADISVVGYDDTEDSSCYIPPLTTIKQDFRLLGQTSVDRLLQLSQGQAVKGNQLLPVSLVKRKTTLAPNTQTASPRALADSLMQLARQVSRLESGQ

pKd: 5.09
SMILES: CC(C)S[C@@H]1O[C@H](CO)[C@H](O)[C@H](O)[C@H]1O [IPTG]
